“Also recorded” adds a separate entry of the source. Where two headings read alike, the source gives them in different places.
Key:
conventional mice = assay: Food intake of conventional mice dosed with 3S-LCA-FMK; format: in vivo, mouse; conditions: compared to mice dosed with vehicle
C57BL/6 mice [1] = conditions: for detection in circulating plasma: in vivo
NCI-H716 cells = assay: Off-target profiling in mammalian cells using 7-N3; format: cell-based, human
Method: Off-Target profiling in Mammalian Cells using 7-N3. The human epithelial cell line NCI-H716 was used to study interactions with mammalian proteins. 10 μM 7-N3 (10 mM stock in DMSO) or 1 uL DMSO (for control) were added to ˜8×10^6 cells in 1 ml DPBS (HiMedia) and incubated for 1 h. Cells were collected in 15 ml Falcon tubes and washed 2 times in 15 ml DBPS by centrifugation at 500 g for 5 mins. A 3rd wash by centrifugation was performed in 1 mM solution of cOmplete™ Protease Inhibitor Cocktail (Roche, Switzerland) in DPBS. Cells were resuspended in 250 ul of DPBS with 1 mM cOmplete™ Protease Inhibitor Cocktail and sonicated at 50% amplitude for 2 secs followed by 30 secs on ice for 3 cycles. The lysate was centrifuged at 15,000 g for 15 mins at 4° C. The supernatant was removed and protein concentration was measured by Bradford assay. The lysates were then subjected to click reaction as per “Click Chemistry for In-gel Fluorescence Imaging” for in-gel fluorescence and “Click Chemistry for MS/MS on Mammalian Lysate” for mass spectrophotometer-based quantification and identification.
Click Chemistry for In-gel Fluorescence Imaging. Click reactions were performed on 25 μL scale. […]
Proteomic Analysis of Click-Tagged Proteins. […] Indicated bands were excised, subjected to in-gel digestion, and extracted peptides analyzed by nanoflow LC-MS/MS as described.^53

B. adolescentis BSH = assay: Target validation and off-target profiling in B. adolescentis using 7-N3; format: cell-based, Bifidobacterium adolescentis L2-32
Method: Target Validation and Off-target Profiling in B. adolescentis using 7-N3. Pilot studies with 7-N3 were performed using B. adolescentis (Gram positive) and B. theta (Gram negative). We chose to use B. adolescentis due to the stronger total fluorescent signal detected by-in gel fluorescence. […] Cultures were allowed to grow anaerobically at 37° C. for 21 h. 10 μM 7-N3 (10 mM stock in DMSO) or […] DMSO (to control tubes) was then added to the cultures and incubated anaerobically at 37° C. for 1 h. The cultures were centrifuged at 2,500 g at 4° C. for 15 mins. The media was decanted and cells were resuspended in PBS containing 1 mM TCEP and 1 mM PMSF and centrifuged 4,200 rpm at 4° C. for 15 mins. The buffer was decanted and the cells were suspended in 300 μL of fresh buffer and transferred to homogenizing tubes (Precellys lysing kit tough micro-organism lysing VK05 tubes) with ceramic beads. The suspension was then homogenized (5000 speed for 90 s*2, 6500 speed for 60 s) and spun down for 20 min at 15,000 g at 4° C. The supernatant was removed and the concentration of proteins in the lysate was quantified by Bradford assay. The lysates were then subjected to click reaction as per “Click Chemistry for In-gel Fluorescence Imaging” for fluorescence imaging and “Click Chemistry for MS/MS on Bacterial Lysate” for mass spectrophotometer-based quantification and identification.
Cultures were allowed to grow anaerobically at 37° C. for 21 h. Decreasing concentrations of 7 were added to different tubes and the cultures were incubated anaerobically at 37° C. for 1 h. 10 μM 7-N3 was then added to the cultures and incubated anaerobically at 37° C. for an additional hour. The cultures were further processed as per the reported method in “Target Validation and Off-target Profiling in B. adolescentis using 7-N3” and “Click Chemistry for In-gel Fluorescence Imaging”.
Click Chemistry for In-gel Fluorescence Imaging. Click reactions were performed on 25 μL scale. Lysates (normalized to 1.5 mg/mL for both bacterial and mammalian cells) pretreated with 10 μM Compound 7-N3 were incubated with 100 μM fluor 488-alkyne (10 mM stock in DMSO), 100 μM CuBr (5 mM stock in DMSO), and 100 μM Tris[(1-benzyl-1H-1,2,3-triazol-4-yl)methyl]amine (5 mM stock in 4:1 t-BuOH:DMSO) for 1 h at 37° C. in the dark. 10 μL of 2×Laemmli buffer (containing 5% β-mercaptoethanol) was added to the reactions and the tubes were heated at 95° C. for 10 mins. 15 μL of the protein samples were then resolved by 10% SDS-PAGE. The ladder was diluted 100-fold and 10 μL was loaded. Gels were destained for 30 mins using 40% methanol, 50% acetic acid, 10% water and visualized using Bio-Rad ChemiDoc MP Imaging System. Gels were stained for 20 mins in Coomassie blue and destained for 2 h prior to imaging.
Click Chemistry for MS/MS on Bacterial Lysate. Click reactions were performed on 100 μL scale. Lysates (normalized to 1.3 mg/mL) pretreated with 10 μM 7-N3 were incubated with 100 μM desthiobiotin-PEG4-alkyne (10 mM stock in DMSO), 1 mM CuBr (50 mM stock in DMSO), and 1 mM Tris[(1-benzyl-1H-1,2,3-triazol-4-yl)methyl]amine (50 mM stock in 4:1 t-BuOH:DMSO) for 1 h at 37° C. The samples were then processed for further analysis as per “Proteomic Analysis of Click-Tagged Proteins”.
Proteomic Analysis of Click-Tagged Proteins.

[2] = system: BSH activity in conventional mouse feces; assay: Screen of inhibitors in conventional mouse feces; format: biochemical
Method: Screen of Inhibitors in Conventional Mouse Feces. […] The tubes were then frozen in dry ice for 5 mins and upon thawing were diluted with an equal volume of methanol. […] The supernatant was removed into a clean eppendorf tube and centrifuged again. […] The concentration of product detected from these assays was reported directly.

[3] = system: differentiated Caco-2 cells; assay: Epithelial permeability assay (4 kDa FITC-dextran)
C57BL/6 mice [4] = conditions: mouse, in vivo
Method: Animal Studies. C57BL/6 mice obtained from Jackson laboratories were maintained under a strict 12 h/12 h light/dark cycle and a constant temperature (21±1° C.) and humidity (55-65%). All experiments were conducted on 8-9 week old male mice.
Mice were fed powdered standard chow diet (LabDiet, catalog no. 5053) for the duration of the experiment. Mice were split into two groups of ten mice each and were maintained on powdered chow (control group) or fed powdered chow containing 0.09% (w/w) GR-7 (experimental group). Feces from these mice were collected as described above at 8 h. Mice were euthanized after 30 hours of access to the powdered chow with or without GR-7 using carbon dioxide. Blood samples were collected by cardiac puncture and placed in EDTA-coated tubes on ice. The liver and cecal contents were then collected from each mouse, snap frozen in liquid nitrogen, and stored at −80° C. until further analysis. […]
BSH Activity in Feces. BSH activity in fecal pellets were quantified using a modified version of a published method.^45 Fecal pellets (approximately 10-20 mg) were suspended in buffer (10% PBS, 90% sodium acetate at pH 5.2) containing 100 μM (GCDCA-d4) to obtain a concentration of 20 mg/mL. […] The concentration of product detected from these assays were reported directly.
Quantification of Bile Acids in Tissues and Plasma. […]
Quantification of bacterial 16S rDNA copy number. […]

[5] = substrate: C[C@H](CCC(=O)NCCS(=O)(=O)O)[C@H]1CC[C@H]2[C@@H]3CC[C@@H]4C[C@H](O)CC[C@]4(C)[C@H]3C[C@H](O)[C@]12C; assay: purified protein, by the assay type
[6] = substrate: C[C@H](CCC(=O)NCCS(=O)(=O)O)[C@H]1CC[C@H]2[C@@H]3[C@@H](O)C[C@@H]4C[C@H](O)CC[C@]4(C)[C@H]3CC[C@]12C; assay: purified protein, by the assay type
[7] = substrate: C[C@H](CCC(=O)NCCS(=O)(=O)O)[C@H]1CC[C@H]2[C@@H]3[C@H](O)C[C@@H]4C[C@H](O)CC[C@]4(C)[C@H]3C[C@H](O)[C@]12C; assay: purified protein, by the assay type; conditions: other: Table 3; substrate of B. longum BSH; mean ± SEM, n = 3; pH 7.5; 37.0 °C
[8] = other: Table 1, substrate of B. longum BSH, PBS pH 7.5, 37° C.
[9] = other: Table 3, substrate of B. longum BSH, mean ± SEM, n = 3, pH 7.5, 37.0 °C

## C[C@H](CCC(=O)CF)[C@H]1CC[C@H]2[C@@H]3CC[C@@H]4C[C@H](OS(=O)(=O)O)CC[C@]4(C)[C@H]3CC[C@]12C [Compound 3S-LCA-FMK, 3-sulfated-lithocholic acid-fluoromethyl ketone]
Conventional mice
  food intake: significant decrease in food consumption; also recorded: reduces food intake
C57BL/6 mice [1]; 0.03% weight/weight in chow ad libitum for 7 days
  BSH activity in feces: significantly reduced
C57BL/6 mice [1]; male, C57Bl/6, mouse
  detection in circulating plasma: No 3S-LCA-FMK was detectable
C57BL/6 mice [1]; mouse
  detection in circulating plasma: not detectable

## C[C@H](CCC(=O)CF)[C@H]1CC[C@H]2[C@@H]3[C@H](O)C[C@@H]4C[C@H](N=[N+]=[N-])CC[C@]4(C)[C@H]3CC[C@]12C [Compound 7-N3]
NCI-H716 cells; 10 μM, 1 h, click with Fluor 488-alkyne
  in-gel fluorescence labeling in NCI-H716 cells: no significant labeling of proteins; also recorded: no enrichment of any band
NCI-H716 cells; label-free LC-MS/MS
  enrichment of proteins in probe-treated NCI-H716 lysates: ≤ 2 fold
B. adolescentis BSH; 10 μM, 1 hour, click with Fluor 488-alkyne
  in-gel fluorescence labeling in B. adolescentis L2-32: labeling of only one protein; also recorded: Only one fluorescent band was visible
B. adolescentis BSH; desthiobiotin-alkyne, streptavidin pulldown, in-gel digestion, LC-MS/MS, semi-quantitative
  enrichment of BSH in gel bands, probe- versus vehicle-treated cultures: 4.5 fold
B. adolescentis BSH; label-free LC-MS/MS, biological triplicate
  enrichment of other bacterial proteins: ≤ 2 fold
B. adolescentis BSH; on-bead digestion, label-free LC-MS/MS
  enrichment of BSH in probe-treated cultures: 3.6 fold
[2]; 7-N3, concentration not given
  BSH inhibition in conventional mouse feces (in words): significant BSH inhibition; also recorded: potently inhibited BSH activity in mouse feces

## C[C@H](CCC(=O)CF)[C@H]1CC[C@H]2[C@@H]3[C@H](O)C[C@@H]4C[C@H](OS(=O)(=O)[O-])CC[C@]4(C)[C@H]3CC[C@]12C.[Na+] [GR-7]
[3]; 60 μM
  epithelial barrier integrity of Caco-2 cells: did not affect epithelial barrier integrity
[3]; differentiated Caco-2, apical chamber, 6 or 12 h
  epithelial monolayer integrity (passive diffusion of 4 kDa FITC-dextran): did not compromise epithelial monolayer integrity
[2]; 20 μM or 60 μM of GR-7, 30 mins, GCDCA-d4 100 μM, 18 hours
  BSH inhibition in mouse fecal slurry (in words): remains a potent pan-BSH inhibitor; also recorded: inhibited BSH activity in a fecal slurry
C57BL/6 mice [4]
  detection in feces: detected
  microbial biomass (16S rDNA copies/g in cecal contents): did not affect microbial biomass

B1: B. longum BSH (Bifidobacterium longum) (protein)
chain: MCTGVRFSDDEGNTYFGRNLDWSFSYGETILVTPRGYHYDTVFGAGGKAKPNAVIGVGVVMADRPMYFDCANEHGLAIAGLNFPGYASFVHEPVEGTENVATFEFPLWVARNFDSVDEVEETLRNVTLVSQIVPGQQESLLHWFIGDGKRSIVVEQMADGMHVHHDDVDVLTNQPTFDFHMENLRNYMCVSNEMAEPTSWGKASLTAWGAGVGMHGIPGDVSSPSRFVRVAYTNAHYPQQNDEAANVSRLFHTLGSVQMVDGMAKMGDGQFERTLFTSGYSSKTNTYYMNTYDDPAIRSYAMADYDMDSSELISVAR
[5]; [8]
  Km: 2.28 mM
[5]; [9]
  Km: 2.3 ± 0.3 mM
[6]; [8]
  Km: 4.14 mM
[6]; [9]
  Km: 4.1 ± 2.5 mM
[7]
  Km: 8.3 ± 2.5 mM
  kcat: 0.115 s⁻¹
  kcat/Km: 13.3 M⁻¹ s⁻¹

Reference: US12577273B2, “Small molecule modulators of gut bacterial bile acid metabolism” (priority 2019, dated 2026)
